Measured values from patent publication US10913744B2, “LRRK2 inhibitors and methods of making and using the same” (Dana-Farber Cancer Institute, Inc., priority 2015, dated 2021).
Read-outs that look alike come from different tables or passages of the source.

Tests used:
[1] = Pharmacokinetic study in mice; type: in vivo, mouse; conditions: for C0: back extrapolated conc.; for Vd: read-out: Vss
[2] = target: CHEK1 (Homo sapiens (Human), UniProt O14757); assay: KinomeScan; type: binding; conditions: 1 uM
[3] = target: EGFR (L747-E749del, A750P) (Homo sapiens (Human), UniProt P00533, A750P/DEL747-749); assay: KinomeScan; type: binding; conditions: 1 uM
[4] = target: LATS2 (Homo sapiens (Human), UniProt Q9NRM7); assay: KinomeScan; type: binding; conditions: 1 uM
[5] = target: MLK3 (Homo sapiens (Human), UniProt Q16584); assay: KinomeScan; type: binding; conditions: 1 uM
[6] = target: SIK (Homo sapiens (Human), UniProt P57059); assay: KinomeScan; type: binding; conditions: 1 uM
[7] = target: WNK1 (Homo sapiens (Human), UniProt Q9H4A3); assay: KinomeScan; type: binding; conditions: 1 uM
[8] = target: TAO1 (Homo sapiens (Human), UniProt Q7L7X3); assay: Dundee profiling
[9] = target: MPSK1 (Homo sapiens (Human), UniProt O75716); assay: Dundee profiling
[10] = target: BRSK2 (Homo sapiens (Human), UniProt Q8IWQ3); assay: Dundee profiling
BRSK2, sequence (Q8IWQ3 whole entry, looked up, species assumed): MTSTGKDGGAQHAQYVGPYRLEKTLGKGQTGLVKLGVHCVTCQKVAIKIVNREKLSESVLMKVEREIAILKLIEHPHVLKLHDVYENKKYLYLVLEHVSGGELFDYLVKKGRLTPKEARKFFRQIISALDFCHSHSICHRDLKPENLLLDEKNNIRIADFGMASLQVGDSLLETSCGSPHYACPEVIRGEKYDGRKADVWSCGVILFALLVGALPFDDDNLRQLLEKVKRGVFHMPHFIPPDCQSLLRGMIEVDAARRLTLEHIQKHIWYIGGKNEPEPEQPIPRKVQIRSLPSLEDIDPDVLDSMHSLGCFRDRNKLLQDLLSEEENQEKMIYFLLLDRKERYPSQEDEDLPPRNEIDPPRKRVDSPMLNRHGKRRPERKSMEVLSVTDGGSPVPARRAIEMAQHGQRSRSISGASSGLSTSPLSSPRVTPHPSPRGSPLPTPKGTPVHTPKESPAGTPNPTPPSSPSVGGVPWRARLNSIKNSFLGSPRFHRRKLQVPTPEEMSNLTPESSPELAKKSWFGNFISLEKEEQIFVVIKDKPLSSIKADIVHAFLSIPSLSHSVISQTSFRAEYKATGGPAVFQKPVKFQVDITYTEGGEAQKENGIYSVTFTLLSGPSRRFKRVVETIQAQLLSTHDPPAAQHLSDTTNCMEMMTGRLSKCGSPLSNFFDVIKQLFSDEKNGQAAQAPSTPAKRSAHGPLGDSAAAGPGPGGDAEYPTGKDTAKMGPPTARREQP

[11] = target: IRAK1 (Homo sapiens (Human), UniProt P51617); assay: Dundee profiling
[12] = target: ERK8 (Homo sapiens (Human), UniProt Q8TD08); assay: Dundee profiling
ERK8, sequence (Q8TD08 whole entry, looked up, species assumed): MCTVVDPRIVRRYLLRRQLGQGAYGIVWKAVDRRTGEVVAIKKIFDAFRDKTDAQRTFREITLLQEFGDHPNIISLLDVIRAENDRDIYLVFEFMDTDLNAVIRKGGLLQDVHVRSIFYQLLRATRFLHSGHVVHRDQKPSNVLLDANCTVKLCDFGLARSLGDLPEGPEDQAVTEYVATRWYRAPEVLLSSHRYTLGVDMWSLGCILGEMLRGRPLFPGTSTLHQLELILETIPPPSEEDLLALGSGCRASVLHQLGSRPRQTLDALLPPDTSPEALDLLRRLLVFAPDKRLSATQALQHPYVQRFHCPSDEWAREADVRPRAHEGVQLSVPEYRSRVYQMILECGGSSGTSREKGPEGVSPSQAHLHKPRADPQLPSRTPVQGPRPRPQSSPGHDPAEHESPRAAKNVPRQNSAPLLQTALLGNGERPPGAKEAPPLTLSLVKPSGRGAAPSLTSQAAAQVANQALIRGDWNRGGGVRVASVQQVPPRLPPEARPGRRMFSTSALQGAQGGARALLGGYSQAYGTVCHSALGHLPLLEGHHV

[13] = target: ABL (Homo sapiens (Human), UniProt P00519); assay: Dundee profiling
[14] = target: LKB1 (Homo sapiens (Human), UniProt Q15831); assay: Dundee profiling
LKB1, sequence (Q15831 whole entry, species assumed): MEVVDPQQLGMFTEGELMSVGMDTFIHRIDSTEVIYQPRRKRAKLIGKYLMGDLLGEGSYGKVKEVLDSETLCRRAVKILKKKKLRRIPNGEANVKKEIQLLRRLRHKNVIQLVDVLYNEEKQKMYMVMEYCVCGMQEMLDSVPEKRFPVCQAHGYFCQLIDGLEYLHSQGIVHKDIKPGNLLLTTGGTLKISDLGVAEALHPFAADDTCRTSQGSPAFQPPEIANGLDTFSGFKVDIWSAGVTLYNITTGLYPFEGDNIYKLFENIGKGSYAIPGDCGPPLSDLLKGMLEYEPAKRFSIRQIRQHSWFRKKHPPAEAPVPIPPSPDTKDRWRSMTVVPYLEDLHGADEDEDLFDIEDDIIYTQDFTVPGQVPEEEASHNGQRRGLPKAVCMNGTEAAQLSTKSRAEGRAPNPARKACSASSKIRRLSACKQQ
LKB1, sequence (Q7RTN6 whole entry partner, species assumed): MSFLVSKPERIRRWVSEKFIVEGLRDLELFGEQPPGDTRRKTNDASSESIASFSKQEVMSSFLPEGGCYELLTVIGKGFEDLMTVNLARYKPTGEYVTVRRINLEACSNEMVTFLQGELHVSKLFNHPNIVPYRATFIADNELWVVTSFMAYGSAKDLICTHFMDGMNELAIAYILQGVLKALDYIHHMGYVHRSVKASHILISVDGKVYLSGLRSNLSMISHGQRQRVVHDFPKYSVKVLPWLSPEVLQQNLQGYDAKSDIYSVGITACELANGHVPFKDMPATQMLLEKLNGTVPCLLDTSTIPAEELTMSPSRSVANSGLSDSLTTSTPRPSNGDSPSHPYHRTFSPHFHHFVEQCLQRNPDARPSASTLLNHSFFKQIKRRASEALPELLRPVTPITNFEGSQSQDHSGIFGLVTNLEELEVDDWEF
LKB1, sequence (Q9Y376 whole entry partner, species assumed): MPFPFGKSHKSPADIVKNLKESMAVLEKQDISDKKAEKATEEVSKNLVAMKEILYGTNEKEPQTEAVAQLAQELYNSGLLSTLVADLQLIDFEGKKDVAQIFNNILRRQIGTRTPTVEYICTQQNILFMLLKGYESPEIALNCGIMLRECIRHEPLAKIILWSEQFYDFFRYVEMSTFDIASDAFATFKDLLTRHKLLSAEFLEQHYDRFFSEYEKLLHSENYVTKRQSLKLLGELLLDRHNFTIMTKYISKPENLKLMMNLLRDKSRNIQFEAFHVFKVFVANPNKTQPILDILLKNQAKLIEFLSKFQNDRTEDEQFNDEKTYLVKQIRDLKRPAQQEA

[15] = target: PKCa (Homo sapiens (Human), UniProt P17252); assay: Dundee profiling
[16] = target: EIF2AK3 (Homo sapiens (Human), UniProt Q9NZJ5); assay: Dundee profiling
[17] = target: ZAP70 (Homo sapiens (Human), UniProt P43403); assay: Dundee profiling
[18] = target: PKA (Homo sapiens (Human), UniProt P17612); assay: Dundee profiling
[19] = target: TAK1 (Homo sapiens (Human), UniProt O43318); assay: Dundee profiling
TAK1, sequence (O43318 whole entry, looked up): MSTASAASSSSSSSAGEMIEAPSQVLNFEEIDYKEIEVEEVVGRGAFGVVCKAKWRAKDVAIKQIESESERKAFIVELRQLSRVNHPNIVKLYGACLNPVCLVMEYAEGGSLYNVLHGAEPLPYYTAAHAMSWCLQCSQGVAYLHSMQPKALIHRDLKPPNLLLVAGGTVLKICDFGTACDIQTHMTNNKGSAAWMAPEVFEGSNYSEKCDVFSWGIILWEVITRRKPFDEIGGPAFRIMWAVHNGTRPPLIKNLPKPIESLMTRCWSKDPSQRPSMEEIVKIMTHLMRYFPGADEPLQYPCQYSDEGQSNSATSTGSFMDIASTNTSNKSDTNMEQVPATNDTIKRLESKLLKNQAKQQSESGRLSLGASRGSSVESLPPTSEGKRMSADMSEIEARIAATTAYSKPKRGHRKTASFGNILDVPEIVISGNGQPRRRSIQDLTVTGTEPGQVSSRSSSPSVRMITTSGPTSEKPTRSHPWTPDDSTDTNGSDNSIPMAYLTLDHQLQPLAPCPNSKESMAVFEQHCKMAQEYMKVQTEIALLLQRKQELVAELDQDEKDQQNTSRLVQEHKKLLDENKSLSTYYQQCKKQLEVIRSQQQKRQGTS

[20] = target: PIM1 (Homo sapiens (Human), UniProt P11309); assay: Dundee profiling
[21] = target: ERK2 (Homo sapiens (Human), UniProt P28482); assay: Dundee profiling
ERK2, sequence (P28482 whole entry, looked up, species assumed): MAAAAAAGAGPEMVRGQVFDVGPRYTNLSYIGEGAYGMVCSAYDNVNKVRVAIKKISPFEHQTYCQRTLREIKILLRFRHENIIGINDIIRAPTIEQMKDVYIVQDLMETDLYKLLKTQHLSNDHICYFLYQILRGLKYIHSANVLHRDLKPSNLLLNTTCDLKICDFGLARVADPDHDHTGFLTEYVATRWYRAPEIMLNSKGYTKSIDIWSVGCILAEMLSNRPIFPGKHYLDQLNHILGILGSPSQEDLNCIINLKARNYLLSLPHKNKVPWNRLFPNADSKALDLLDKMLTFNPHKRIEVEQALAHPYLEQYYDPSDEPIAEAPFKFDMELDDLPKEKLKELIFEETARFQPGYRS

[22] = tested on: CK2; assay: Dundee profiling
[23] = target: PDK1 (Homo sapiens (Human), UniProt O15530); assay: Dundee profiling
PDK1, sequence (O15530 whole entry): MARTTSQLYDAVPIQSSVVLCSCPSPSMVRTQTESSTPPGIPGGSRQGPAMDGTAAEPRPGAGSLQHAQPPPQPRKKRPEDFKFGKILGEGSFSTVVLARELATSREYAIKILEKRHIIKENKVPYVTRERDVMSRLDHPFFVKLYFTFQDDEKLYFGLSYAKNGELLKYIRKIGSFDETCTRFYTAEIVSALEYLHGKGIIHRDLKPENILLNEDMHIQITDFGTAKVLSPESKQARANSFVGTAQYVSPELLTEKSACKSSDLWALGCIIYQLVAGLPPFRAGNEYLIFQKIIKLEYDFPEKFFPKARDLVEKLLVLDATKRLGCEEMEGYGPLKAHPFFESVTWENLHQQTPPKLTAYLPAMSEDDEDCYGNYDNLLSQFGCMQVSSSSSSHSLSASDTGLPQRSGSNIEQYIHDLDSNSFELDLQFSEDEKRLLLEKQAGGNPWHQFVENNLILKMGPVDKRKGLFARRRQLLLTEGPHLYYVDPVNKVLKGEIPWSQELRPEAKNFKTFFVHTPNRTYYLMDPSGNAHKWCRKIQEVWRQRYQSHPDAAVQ

[24] = target: p38a MAPK (Homo sapiens (Human), UniProt Q16539); assay: Dundee profiling
p38a MAPK, sequence (Q16539 whole entry): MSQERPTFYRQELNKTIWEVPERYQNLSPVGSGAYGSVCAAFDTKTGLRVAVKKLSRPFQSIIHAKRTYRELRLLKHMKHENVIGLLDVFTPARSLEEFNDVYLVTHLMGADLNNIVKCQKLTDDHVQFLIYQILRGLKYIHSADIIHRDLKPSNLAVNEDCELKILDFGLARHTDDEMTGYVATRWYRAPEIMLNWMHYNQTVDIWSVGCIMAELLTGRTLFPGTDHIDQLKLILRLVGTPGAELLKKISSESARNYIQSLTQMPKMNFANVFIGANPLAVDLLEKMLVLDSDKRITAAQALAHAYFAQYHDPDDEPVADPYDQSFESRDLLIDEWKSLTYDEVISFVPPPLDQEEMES

[25] = target: MAPKAP-K2 (Homo sapiens (Human), UniProt P49137); assay: Dundee profiling
[26] = target: TrkA (Homo sapiens (Human), UniProt P04629); assay: Dundee profiling
[27] = target: OSR1 (Homo sapiens (Human), UniProt O95747); assay: Dundee profiling
[28] = target: CAMKKb (Homo sapiens (Human), UniProt Q96RR4); assay: Dundee profiling
CAMKKb, sequence (Q96RR4 whole entry, species assumed): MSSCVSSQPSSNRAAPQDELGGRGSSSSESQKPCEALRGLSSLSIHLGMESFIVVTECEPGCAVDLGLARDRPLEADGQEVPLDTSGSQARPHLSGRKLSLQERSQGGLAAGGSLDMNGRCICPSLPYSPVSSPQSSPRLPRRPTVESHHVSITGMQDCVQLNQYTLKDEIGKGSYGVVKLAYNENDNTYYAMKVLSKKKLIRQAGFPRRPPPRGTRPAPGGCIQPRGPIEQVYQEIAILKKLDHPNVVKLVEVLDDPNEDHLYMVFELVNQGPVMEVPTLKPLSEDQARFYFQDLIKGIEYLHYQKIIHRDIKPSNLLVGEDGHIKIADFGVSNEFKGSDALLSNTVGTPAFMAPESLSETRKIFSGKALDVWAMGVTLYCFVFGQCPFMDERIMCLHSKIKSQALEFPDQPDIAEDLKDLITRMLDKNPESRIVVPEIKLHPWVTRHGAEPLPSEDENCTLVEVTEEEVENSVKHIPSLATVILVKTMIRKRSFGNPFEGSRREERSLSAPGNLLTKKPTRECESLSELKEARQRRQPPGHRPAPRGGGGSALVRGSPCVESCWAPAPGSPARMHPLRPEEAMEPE

[29] = target: JNK3 (Homo sapiens (Human), UniProt P53779); assay: Dundee profiling
[30] = target: TSSK1 (Homo sapiens (Human), UniProt Q9BXA7); assay: Dundee profiling
[31] = read-out: percent remaining enzymatic activity, I1, 1 μM
[32] = read-out: percent remaining enzymatic activity, I10
[33] = read-out: percent remaining enzymatic activity

CNc1nc(Nc2ccc(C(=O)N3CCOCC3)cc2OC)nc2[nH]cc(Cl)c12 [Compound 18, (4-((5-chloro-4-(methylamino)-7H-pyrrolo[2,3-d]pyrimidin-2-yl)amino)-3-methoxyphenyl)(morpholino)methanone]
AUClast ([1]; Brain, i.v., 2 mg/kg): 0.23931 µg·h/mL | AUClast ([1]; Plasma, i.v., 2 mg/kg): 0.53267 µg·h/mL | T1/2 ([1]; Plasma, i.v., 2 mg/kg): 39.6 min | AUClast ([1]; Plasma, p.o., 10 mg/kg): 3.09458 µg·h/mL | Kp ([1]; mouse, brain/plasma, iv, 2 mg/kg i.v., from AUClast, read-out: brain/plasma concentration ratio): 0.45 | AUC(0-inf) ([1]; mouse, iv, Brain, 2 mg/kg): 0.246 µg·h/mL | AUC(0-t) ([1]; mouse, iv, Brain, 2 mg/kg): 0.239 µg·h/mL | clearance ([1]; mouse, iv, Brain, 2 mg/kg): 8.11 L/h/kg | half-life ([1]; mouse, iv, Brain, 2 mg/kg): 13.8 min | C0 ([1]; mouse, iv, Brain, 2 mg/kg): 1.34 µg/mL | Vd ([1]; mouse, iv, Brain, i.v., 2 mg/kg): 1.7 L/kg | AUC(0-inf) ([1]; mouse, iv, Plasma, 2 mg/kg): 0.536 µg·h/mL | AUC(0-t) ([1]; mouse, iv, Plasma, 2 mg/kg): 0.533 µg·h/mL | clearance ([1]; mouse, iv, Plasma, 2 mg/kg): 3.73 L/h/kg | half-life ([1]; mouse, iv, Plasma, 2 mg/kg): 39.6 min | C0 ([1]; mouse, iv, Plasma, 2 mg/kg): 1.6 µg/mL | Vd ([1]; mouse, iv, Plasma, i.v., 2 mg/kg): 1.73 L/kg | bioavailability ([1]; mouse, oral, Plasma, 10 mg/kg p.o. vs 2 mg/kg i.v., from AUClast, read-out: % F (oral bioavailability)): 116% | AUC(0-inf) ([1]; mouse, po, Brain, 10 mg/kg): 0.762 µg·h/mL | AUC(0-t) ([1]; mouse, po, Brain, 10 mg/kg): 0.688 µg·h/mL | Cmax ([1]; mouse, po, Brain, 10 mg/kg): 0.247 µg/mL | Tmax ([1]; mouse, po, Brain, 10 mg/kg): 60 min | AUC(0-inf) ([1]; mouse, po, Plasma, 10 mg/kg): 3.87 µg·h/mL | AUC(0-t) ([1]; mouse, po, Plasma, 10 mg/kg): 3.09 µg·h/mL | Cmax ([1]; mouse, po, Plasma, 10 mg/kg): 0.803 µg/mL | Tmax ([1]; mouse, po, Plasma, 10 mg/kg): 60 min | KinomeScan value [2]: 100 | KinomeScan value [3]: 81 | KinomeScan value [4]: 93 | KinomeScan value [5]: 100 | KinomeScan value [6]: 94 | KinomeScan value [7]: 95 | remaining activity at 1 µM [8, 31]: 113% | remaining activity at 1 µM [8, 32]: 100% | remaining activity at 1 µM [9, 31]: 113% | remaining activity at 1 µM [9, 32]: 106% | remaining activity at 1 µM [10, 31]: 110% | remaining activity at 1 µM [10, 32]: 98% | remaining activity at 1 µM [11, 31]: 109% | remaining activity at 1 µM [11, 32]: 92% | remaining activity at 1 µM [12, 31]: 108% | remaining activity at 1 µM [12, 32]: 71% | remaining activity at 1 µM [13, 31]: 106% | remaining activity at 1 µM [13, 32]: 103% | remaining activity at 1 µM [14, 31]: 103% | remaining activity at 1 µM [14, 32]: 96% | remaining activity at 1 µM [15, 31]: 102% | remaining activity at 1 µM [15, 32]: 100% | remaining activity at 1 µM [16, 31]: 102% | remaining activity at 1 µM [16, 32]: 79% | remaining activity at 1 µM [17, 31]: 101% | remaining activity at 1 µM [17, 32]: 85% | remaining activity at 1 µM [18, 31]: 99% | remaining activity at 1 µM [18, 32]: 101% | remaining activity at 1 µM [19, 31]: 96% | remaining activity at 1 µM [19, 32]: 42% | remaining activity at 1 µM [20, 31]: 95% | remaining activity at 1 µM [20, 32]: 88% | remaining activity at 1 µM [21, 31]: 94% | remaining activity at 1 µM [21, 32]: 71% | percent remaining enzymatic activity ([22]; I1, 1 μM): 94% | percent remaining enzymatic activity ([22]; I10): 70% | remaining activity at 1 µM [23, 31]: 91% | remaining activity at 1 µM [23, 32]: 88% | percent remaining enzymatic activity ([24]; I10): 104% | remaining activity at 1 µM [24, 33]: 90% | remaining activity at 1 µM [25, 31]: 86% | remaining activity at 1 µM [25, 32]: 40% | remaining activity at 1 µM [26, 31]: 85% | remaining activity at 1 µM [26, 32]: 84% | remaining activity at 1 µM [27, 31]: 61% | remaining activity at 1 µM [27, 32]: 12% | remaining activity at 1 µM [28, 31]: 50% | remaining activity at 1 µM [28, 32]: 16% | percent remaining enzymatic activity ([29]; I10): 9% | remaining activity at 1 µM [29, 33]: 29% | remaining activity at 1 µM [30, 31]: 14% | remaining activity at 1 µM [30, 32]: 7%
